Test results: patent publication US12077607B2, “Functional and therapeutic effects of PAR4 cleavage by cathepsin G” (UNIVERSITY OF UTAH RESEARCH FOUNDATION, priority 2021, dated 2024)

Assays:
[1] = biological target: T1, PAR4-S67E (Homo sapiens, UniProt Q96RI0, S67E); test: PAR4 mutant calcium flux assay, HEK293T/17 cells, S67E; format: cell-based; conditions: 100 nM vorapaxar
T1 construct: Flag; expressed in transfected cells; host or cells: HEK293T/17 (ATCC CRL-11268)
T1 sequence (Q96RI0 18-385 S67E): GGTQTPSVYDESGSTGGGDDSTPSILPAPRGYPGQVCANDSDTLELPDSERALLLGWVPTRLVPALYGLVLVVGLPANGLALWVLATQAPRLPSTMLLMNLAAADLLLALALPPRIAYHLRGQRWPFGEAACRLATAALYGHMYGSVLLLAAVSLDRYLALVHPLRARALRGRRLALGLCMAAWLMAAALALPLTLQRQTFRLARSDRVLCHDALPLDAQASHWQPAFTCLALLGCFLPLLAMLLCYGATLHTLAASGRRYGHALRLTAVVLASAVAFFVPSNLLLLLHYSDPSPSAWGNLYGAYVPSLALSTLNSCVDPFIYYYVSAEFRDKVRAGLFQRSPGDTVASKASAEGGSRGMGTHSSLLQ
Method: PAR4 mutant calcium flux assays. Using Quikchange Lightning Site-Directed mutagenesis (Agilent) per manufacturing instructions, pCMV-Flag-PAR4-S66E, pCMV-Flag-PAR4-S67E, and pCMV-Flag-PAR4-R68E were generated from mutation of pCMV-Flag-PAR4 and confirmed by sequencing (University of Utah DNA Sequencing Core). Prior to transfection, HEK293T/17 cells (ATCC CRL-11268) were seeded at 4.5×10^4/mL. The following day, cells were transfected with the plasmid of interest using Lipofectamine 2000 (Invitrogen, Carlsbad, CA, USA). Twenty-four hours after transfection, media was removed and replaced with Optimem w/Glutamax (Gibco, Carlsbad, CA, USA) containing vorapaxar (100 nM) (Cayman Chemical, Ann Arbor, MI, USA) and Fura2-QBT (Molecular Devices). Following incubation for 1 hour at 37° C., plate was placed in the Flexstation 3 (Molecular Devices) where agonists, Tyrode's Buffer, cathepsin G (2.5 μM), or α-thrombin (1.5 U/mL), were injected onto cells and calcium mobilization was monitored and recorded.

[2] = test system: mouse washed platelets; test: Platelet aggregation of mouse washed platelets; format: cell-based; conditions: 1 U/mL human thrombin, 1 μM human CatG or 1 mM RA-11mer
Text: Animal studies. Mouse platelets were isolated as previously described from C57BL/6 mice (Denorme et al., Blood. 2020; 135(6):429-440). Dog platelets were isolated from whole blood drawn into ACD using a similar isolation procedure as for human platelets. All animal studies were approved by the University of Utah Institutional Animal Care and Use Committee (18-10012).
Platelet and neutrophil isolation. Platelets and neutrophils were isolated as previously described (Yost et al., J Clin Invest. 2016; 126(10):3783-3798). Platelet isolation from dogs, rats and mice was approved by the IACUC. Platelet activation and aggregation were performed as previously described (Manne et al., Blood. 2020; 136(11): 1317-1329).
Platelet isolation, aggregation, and activation. Human washed platelets were prepared and resuspended in Tyrode's Buffer at 2×10^8/mL as described (Edelstein et al., Nat Med. 2013; 19(12):1609-1616). For human and dog platelet comparisons, platelets were prepared using a modified human platelet protocol with final concentrations of […] (Cayman Chemical, Ann Arbor, MI, USA) used during centrifugation steps. Centrifugations after Tyrode's washes was decreased to 1,250×g as described in Cremer et al., PLOS One. 2019; 14(11): e0224891. Platelet aggregation was measured under stirring conditions at 37° C. using a PAP-8E aggregometer after treatment with the following agonists: arachidonic acid (Bio/Data Corporation, Horsham, PA, USA), cathepsin G, elastase, proteinase 3 (Athens Research Group), α-thrombin (Sigma, St. Louis, MO, USA), PAR-1 peptide (SFLLRN) (GL Biochem, China). P-selectin and PAC-1 were measured as previously described (Yee et al., J Thromb Haemost. 2006; 4(9):2043-2050; Tourdot et al., Arterioscler Thromb Vasc Biol. 2014; 34(12):2644-2650).

Substance	thrombin-induced calcium flux, S67E mutant compared with WT ([1]; thrombin 1.5 U/mL)	platelet aggregation, species comparison: mice [2]	CatG-induced calcium flux, S67E mutant compared with WT ([1]; CatG 2.5 μM, P<0.001)
thrombin	None of the PAR4 mutants were significantly different than WT	induced platelet aggregation	
CatG: serine protease cathepsin G released by activated neutrophils		only induced platelet aggregation in humans and dogs	significantly less calcium flux than WT
